Legend:
[1] = biological target: T1, His6 tagged human recombinant FABP4 (Homo sapiens, UniProt P15090); assay: FABP4 TR-FRET assay: displacement of fluorescent fatty acid BODIPY FL C12; conditions: inhibition of BODIPY FL C12 binding to His6-FABP4; 1.2 μL of 1.085 mM compound in DMSO per well; triplicates, mean percent inhibition
T1 construct: purchased Cayman Chemicals 10009549
Text: Activity of compounds with FABP4 was profiled using a Terbium (Tb) based time resolved fluorescence energy transfer (TR-FRET) assay. The assay measures the compound mediated displacement of the fluorescent fatty acid BODIPY FL C12 (Thermo Fisher; catalog number D3822) from His6 tagged human recombinant FABP4 (His6-FABP4; Cayman Chemicals, catalog number 10009549) via recording the energy transfer from TB donor molecule on anti-His6-tag antibody to acceptor BODIPY moiety. Briefly, compounds and BODIPY FL C12 were prepared at a concentration of 1.085 mM and 4.2 μM, respectively, in DMSO. 1.2 μL of each compound or DMSO (vehicle control) and 1.2 μL of BODIPY FL C12 were added into the wells of a 384-well black polypropylene plate. His6-FABP4 and Tb anti-His6 antibody were prepared in the assay buffer (25 mM Tris/HCl, pH 7.4, 0.4 mg/ml γ-globulins, 0.010% NP-40, 1 mM DTT) at a concentration of 83 nM and 49.6 nM, respectively. The protein and antibody solutions were then mixed at a ratio of 34:7 (v/v) and incubated on ice for 30 minutes. The assay was initiated by adding 41 μL of the resulting protein/antibody solution into the wells containing the compounds and BODIPY FL C12. The plate was centrifuged and incubated at room temperature for 10 min. The TR-FRET signals were recorded using an EnVision Multilabel plate reader (PerkinElmer; TB excitation 320 nm, BODIPY FL C12 emission 520 nm; TB emission 615 nm). Relative fluorescence ratio (520 nm*10,000/615 nm) were used to calculate the compound mediated inhibition of BODIPY C12 FL fatty acid binding to FABP4. The compounds were tested in triplicates and the results were represented as mean percent inhibition (compound*100/DMSO)±standard deviation (SD). Glucose consumption and FABP4 inhibition is shown below in Table 3 below. The compounds showing no inhibition of activity in the TR-FRET assay are marked as N.A. N.D. stands for “not determined”.

[2] = test system: differentiated 3T3-L1 mouse adipocyte cells; assay: Adipocyte glucose consumption in differentiated 3T3-L1 cells (colorimetric glucose assay of the medium); assay type: cell-based; conditions: 3T3-L1, 24 h, compound 10 μM, loss of glucose from culture medium, mean fold change (compound/DMSO)
Description: Activity of compounds on adipocyte glucose consumption was tested in differentiated 3T3-L1 mouse adipocyte cells. 3T3-L1 preadipocytes (ATCC) were routinely cultured in a growth medium composed of DMEM high-glucose (Sigma), 10% FBS (Gibco), 10 U/ml penicillin and 10 μg/ml streptomycin (P/S; Gibco). To induce adipogenic differentiation, a confluent layer of 3T3-L1 cells were incubated with the growth medium containing 2 μM rosiglitazone, 1 μM dexamethasone, 500 μM IBMX, and 1 μg/ml insulin (Sigma). Forty-eight (48) hours later (on day 2) and on days 4 and 6, medium of the cells was replaced with fresh medium containing 1 μg/ml insulin. On days 8 and 10, the medium was refreshed with regular growth medium and addition of insulin was omitted. On day 11, medium of the cells were 10 replaced with fresh medium containing either the indicated compounds (10 μM) or the vehicle in which the compounds were dissolved (DMSO). The final concentration of DMSO was 0.1% (v/v). Growth medium containing 0.1% DMSO was incubated in culture wells containing no cells and used as control. 24 hours later, medium was harvested and subjected to centrifugation at 10,000 g for 5 min. Glucose concentration in the supernatants was determined using a 15 colorimetric assay (Glucose Assay Kit I, Eton Biosciences). Glucose consumption in compound and vehicle treated cells was measured as loss of glucose from the culture medium and represented as mean fold change (compound/DMSO)±standard deviation (SD).

T1 sequence (P15090 whole entry): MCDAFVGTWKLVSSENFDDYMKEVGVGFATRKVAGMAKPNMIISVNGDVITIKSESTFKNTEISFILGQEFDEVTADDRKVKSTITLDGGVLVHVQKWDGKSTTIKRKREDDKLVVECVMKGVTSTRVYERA

Row | Compound | inhibition at 1085 µM (stock) [1] [%] | fold induction at 10 µM [2]
1 | CCCCc1ccc2nc(OCC(=O)O)cc(-c3ccccc3)c2c1 [2-[(6-butyl-4-phenylquinolin-2-yl)oxy]acetic acid] | 11.3 | 1.12
2 | CCCCCCc1ccc2nc(N(C)CC(C)C(=O)O)cc(-c3cccnc3)c2c1 (centres unmarked) [3-{[6-hexyl-4-(pyridin-3-yl)quinolin-2-yl](methyl)amino}-2-methylpropanoic acid] | 54.7 | 1.16
3 | CCCCCCc1ccc2nc(N(C)CC(=O)O)cc(-c3ccncc3)c2c1 [2-{[6-hexyl-4-(pyridin-4-yl)quinolin-2-yl](methyl)amino}acetic acid] | 51.4 | 1.17
4 | CCCCCCc1ccc2nc(N(C)CC(=O)O)cc(N3CCC(F)(F)CC3)c2c1 [2-{[4-(4,4-difluoropiperidin-1-yl)-6-hexylquinolin-2-yl](methyl)amino}acetic acid] | 53.7 | 1.23
5 | CCCCCCc1ccc2nc(N3CCCC3C(=O)O)cc(-c3ccccc3)c2c1 (centres unmarked) [1-(6-hexyl-4-phenylquinolin-2-yl)pyrrolidine-2-carboxylic acid] | 67.5 | 1.09
6 | CCCCCCc1ccc2nc(N(C)CC(=O)O)cc(-c3ccccc3)c2c1 [2-[(6-hexyl-4-phenylquinolin-2-yl)(methyl)amino]acetic acid] | 88.2 | 1.41
7 | Cc1ccccc1CCc1ccc2nc(N(C)CC(=O)O)cc(-c3ccccc3)c2c1 [2-[methyl({6-[2-(2-methylphenyl)ethyl]-4-phenylquinolin-2-yl})amino]acetic acid] | 38.2 | 1.4
8 | CCCCc1ccc2nc(N(C)CC(=O)O)cc(-c3cccc(O)c3)c2c1 [2-{[6-butyl-4-(3-hydroxyphenyl)quinolin-2-yl](methyl)amino}acetic acid] | 83.8 | 1.28
9 | CCCCCCc1ccc2nc(N(C)CC(=O)O)cc(Oc3cccnc3)c2c1 [2-{[6-hexyl-4-(pyridin-3-yloxy)quinolin-2-yl](methyl)amino}acetic acid] | 85 | 1.33
10 | CCCCc1ccc2nc(OCC(=O)O)cc(-c3cccc(C(N)=O)c3)c2c1 [2-{[6-butyl-4-(3-carbamoylphenyl)quinolin-2-yl]oxy}acetic acid] | 54.5 | 1.15
11 | CCCCc1ccc2nc(N(C)CC(=O)O)cc(-c3ccc(F)cc3)c2c1 [2-{[6-butyl-4-(4-fluorophenyl)quinolin-2-yl](methyl)amino}acetic acid] | 58.6 | 1.49
12 | CCCc1ccc2nc(N(C)CC(=O)O)cc(-c3ccccc3)c2c1 [2-[methyl(4-phenyl-6-propylquinolin-2-yl)amino]acetic acid] | 104 | 1.36
13 | CCCCc1ccc2nc(N(C)CC(=O)O)cc(-c3cccc(F)c3)c2c1 [2-{[6-butyl-4-(3-fluorophenyl)quinolin-2-yl](methyl)amino}acetic acid] | 58.9 | 1.43
14 | CCCCCCc1ccc2nc(N3CCCC(C(=O)O)C3)cc(-c3cccnc3)c2c1 (centres unmarked) [1-[6-hexyl-4-(pyridin-3-yl)quinolin-2-yl]piperidine-3-carboxylic acid] | 91.6 | 1.09
15 | CCCCCCc1ccc2nc(N(C)CC(=O)O)cc(N3CCOCC3)c2c1 [2-{[6-hexyl-4-(morpholin-4-yl)quinolin-2-yl](methyl)amino}acetic acid] | 26.5 | 1.31
16 | CCCCCCCCc1ccc2nc(N(C)CC(=O)O)cc(Oc3cccc(F)c3)c2c1 [2-{[4-(3-fluorophenoxy)-6-octylquinolin-2-yl](methyl)amino}acetic acid] | 74.6 | 1.32

Row | Compound | inhibition at 1085 µM (stock) [1] [%] | fold induction at 10 µM [2]
17 | CCCCCCCCc1ccc2nc(N(C)CC(=O)O)cc(Oc3cccnc3)c2c1 [2-{methyl [6-octyl-4-(pyridin-3-yloxy)quinolin-2-yl]amino}acetic acid] | 83.6 | 1.47
18 | CN(CC(=O)O)c1cc(-c2ccc(F)cc2)c2cc(-c3ccc(F)cc3)ccc2n1 [2-{[4,6-bis(4-fluorophenyl)quinolin-2-yl](methyl)amino}acetic acid] | 42 | 1.28
19 | CCCCCCc1ccc2nc(N(C)CC(C)C(=O)O)cc(-c3ccccc3)c2c1 (centres unmarked) [3-[(6-hexyl-4-phenylquinolin-2-yl)(methyl)amino]-2-methylpropanoic acid] | 89.7 | 1.31
20 | CCCCCCc1ccc2nc(N(C)C(C)CC(=O)O)cc(-c3cccc(C#N)c3)c2c1 (centres unmarked) [3-{[4-(3-cyanophenyl)-6-hexylquinolin-2-yl](methyl)amino}butanoic acid] | 77.9 | 1.03
21 | O=C(O)C1CCCN1c1cc(-c2ccccc2)c2cc(Cl)ccc2n1 (centres unmarked) [1-(6-chloro-4-phenylquinolin-2-yl)pyrrolidine-2-carboxylic acid] | 105 | 1.08
22 | CCCCCCC1CCc2nc(N(C)CC(=O)O)cc(-c3ccccc3)c2C1 (centres unmarked) [2-[(6-hexyl-4-phenyl-5,6,7,8-tetrahydroquinolin-2-yl)(methyl)amino]acetic acid] | 64.5 | 1.34
23 | CCCCCc1ccc2nc(N(C)CC(=O)O)cc(-c3ccc(F)cc3)c2c1 [2-{[4-(4-fluorophenyl)-6-pentylquinolin-2-yl](methyl)amino}acetic acid] | 80.9 | 1.34
24 | CC(C(=O)O)N(C)c1cc(-c2ccccc2)c2cc(Cl)ccc2n1 (centres unmarked) [2-[(6-chloro-4-phenylquinolin-2-yl)(methyl)amino]propanoic acid] | 97.4 | 1.18
25 | CCCCCCCCc1ccc2nc(N(CC)CC(=O)O)cc(-c3ccc(F)cc3)c2c1 [2-{ethyl[4-(4-fluorophenyl)-6-octylquinolin-2-yl]amino}acetic acid] | 65.8 | 1.25
26 | CCCCCCc1ccc2nc(-n3ccc(C(=O)O)c3)cc(-c3ccccc3)c2c1 [1-(6-hexyl-4-phenylquinolin-2-yl)-1H-pyrrole-3-carboxylic acid] | < 0 | 1.09
27 | CCCCCCc1ccc2nc(N(C)CC(=O)O)c(C)c(-c3ccc(F)cc3)c2c1 [2-([4-(4-fluorophenyl)-6-hexyl-3-methylquinolin-2-yl](methyl)amino}acetic acid] | 111 | 1.19
28 | CCCCCCc1ccc2nc(OC(C)C(=O)O)cc(-c3ccncc3)c2c1 (centres unmarked) [2-{[6-hexyl-4-(pyridin-4-yl)quinolin-2-yl]oxy}propanoic acid] | 21 | 1.3
29 | CCCCc1ccc2nc(N(C)CC(C)C(=O)O)cc(-c3ccc(F)cc3)c2c1 (centres unmarked) [3-{[6-butyl-4-(4-fluorophenyl)quinolin-2-yl](methyl)amino}-2-methylpropanoic acid] | 74 | 1.34
30 | CCCCCCc1ccc2nc(OCC(=O)O)cc(-c3cccc(C#N)c3)c2c1 [2-{[4-(3-cyanophenyl)-6-hexylquinolin-2-yl]oxy}acetic acid] | 39.4 | 1.02
31 | CCCCCCc1ccc2nc(N(C)Cc3nn[nH]n3)cc(-c3ccccc3)c2c1 [6-hexyl-N-methyl-4-phenyl-N-[(2H-1,2,3,4-tetrazol-5-yl)methyl]quinolin-2-amine] | 37.8 | 1.52

From patent US20230183179A1, “NOVEL CELL METABOLISM MODULATING COMPOUNDS AND USES THEREOF” (CRESCENTA BIOSCIENCES, priority 2020, published 2023)
